{"source": "patent US20020137154A1", "about": "“Methods for improving cell growth and alcohol production during fermentation” (priority 2000, published 2002)", "type_in_all_cases": "cell-based", "key": {"[1]": {"system": "recombinant Escherichia coli KO11", "test": "Batch fermentation of E. coli KO11 in 1% CSL medium and xylose with nutrient additives: ethanol production and cell growth", "settings": "additive 2 g/L unless indicated; for activity at 2000 µg/mL: Escherichia coli", "method": "(§1) Two types of media were tested: 1% CSL and Luria broth (LB). Each contained 97 g of either xylose or glucose per liter. Luria Broth consists of, per liter: 10 g Difco® Tryptone, 5 g Difco® Yeast Extract and 5 g NaCl. The 1% CSL medium consists of Corn Steep Liquor (1% w/v) plus mineral salts (mineral salts per liter: 1 g of KH2PO4. 0.5 g of K2HPO4, 3.1 g of (NH4)2SO4, 0.4 g of MgCl2·6H2), and 20 mg FeCl3·6H2O).\n(§2) Luria Broth was prepared by autoclaving a 2× nutrient stock containing, per liter: 20 g Difco® Tryptone, 10 g Difo® Yeast Extract, and 10 g NaCl. Sugars (xylose or glucose) were autoclaved separately. A 1% CSL medium was prepared as follows: Commercial Corn Steep Liquor (CSL; 50% dry weight/50% water) was diluted with tap water to make a 20X stock containing 100 g dry weight of Corn Steep Liquor/L and was adjusted to pH 7.2 with NaOH (50%). After sterilization by autoclaving, the 20X CSL stock was clarified by centrifugation at 5000×g for 10 minutes. Magnesium was added as a 100× stock solution (40 g/L MgCl2·6H2O). Iron was added as a 1000× stock solution made by dissolving 20 g FeCl3·6H2O in 175 mL of HCl and adjusting to 1 L with sterile water. Nitrogen, sulfur and phosphorus were added using a 20× stock solution containing the following (per liter): 20 g of KH2PO4, 10 g of K2HPO4 and 62 g of (NH4)2SO4. Stock solutions containing minerals were sterilized separately by autoclaving. Final media was prepared by adding 750 mL of water to 1 L bottle containing 100 g of xylose or glucose.\nInocula were grown in same media used for fermentation and were prepared as follows. Three colonies from a fresh plate were used to inoculate seed cultures: 250-mL flask containing 100 mL medium. These cultures were grown with agitation (120 rpm) for 12-16 hours at 35° C. to a final OD550nm of approximately 2.0-2.5. Cells were harvested by centrifugation at 5000×g for 5 minutes, and resuspended in fresh media to an OD550nm of 0.1. The resulting suspension was distributed into 500-mL beakers containing 345 ml each of fermentation medium. Acetaldehyde was added as indicated. Batch fermentations (35° C., 100 rpm) were maintained at pH 6.5 by the automatic addition of 2N KOH. Cell mass, ethanol, and base addition (2N KOH) were recorded during 96 hours of incubation. […]\n(§3) Additives (e.g., as listed in Table 1) were dissolved in 5 mL di-H2O. Solutions with pH lower than 5 were neutralized to pH 6.5 with 2N KOH. Nutritional supplements were then filter-sterilized (0.45 μm filter disk) directly into the fermentation vessel containing the culture. The final concentration of all additives in the culture medium was 2 g/L unless otherwise indicated.\n(§4) Cell mass was estimated by measuring OD550nm using Baush & Lomb® Spectronic 70 spectrophotometer. […] Ethanol was measured by gas chromatography using a Varian® 3400 CX gas chromatograph with 1-propanol as an internal standard.\n(§5) Tables 1, 3, and 5 show time to completion of fermentation, ethanol production, and volumetric productivity of the fermentation for all concentrations of the compound and the control. Maximum ethanol production is shown in grams/liter (g/L). The ethanol yield is shown in grams of ethanol/grams of added sugar. Maximum volumetric productivity is shown in grams ethanol/(liter)(hour). The average productivity is calculated form the start of fermentation to the completion of fermentation is grams ethanol/(liter)hour).\nTables 2, 4, and 6 show the initial growth of the cells (OD taken after the first 24 hours of fermentation) and the maximum cell density (the time which culture reaches the maximum OD value). […]"}, "[2]": {"system": "recombinant Escherichia coli KO11", "test": "Batch fermentation of E. coli KO11 in 1% CSL medium and glucose with nutrient additives: ethanol production and cell growth", "settings": "additive 2 g/L unless indicated; for activity at 2000 µg/mL: Escherichia coli", "method": "as §1, §2\n(§6) Inocula were grown in same media used for fermentation and were prepared as follows. Three colonies from a fresh plate were used to inoculate seed cultures: 250-mL flask containing 100 mL medium. These cultures were grown with agitation (120 rpm) for 12-16 hours at 35° C. to a final OD550nm of approximately 2.0-2.5. Cells were harvested by centrifugation at 5000×g for 5 minutes, and resuspended in fresh media to an OD550nm of 0.1. The resulting suspension was distributed into 500-mL beakers containing 345 ml each of fermentation medium. Acetaldehyde was added as indicated. Batch fermentations (35° C., 100 rpm) were maintained at pH 6.5 by the automatic addition of 2N KOH. Cell mass, ethanol, and base addition (2N KOH) were recorded during 96 hours of incubation.\n(§7) Equivalent amounts of distilled water were added instead of the acetaldehyde in control experiments.\nas §3, §4, §5\n(§8) Tables 2, 4, and 6 show the initial growth of the cells (OD taken after the first 24 hours of fermentation) and the maximum cell density (the time which culture reaches the maximum OD value).\n(§9) Acetaldehyde was added to the fermentation medium at five different concentrations and time points. […] Where two additions are indicated, the first volume was added at the start of fermentation and the second was added after 8 hours of fermentation."}, "[3]": {"system": "recombinant Escherichia coli KO11", "test": "Batch fermentation of E. coli KO11 in Luria broth and xylose with nutrient additives: ethanol production and cell growth", "settings": "LB+xylose; additive 2 g/L unless indicated", "method": "as §1, §2, §6, §7, §3, §4, §5, §8, §9"}}}
{"molecule": "N[C@@H](CCC(=O)O)C(=O)O", "note": "[Glutamate, glutamate]", "values": [{"measurement": "Ethanol Production Maximum", "setting": "[1]; 1% CSL+xylose", "result": 43.14, "unit": "g/L"}, {"measurement": "Ethanol Production Maximum % Control", "setting": "[1]; 1% CSL+xylose", "result": 143.43, "unit": "%"}, {"measurement": "Ethanol yield", "setting": "[1]; 1% CSL+xylose", "result": "0.444 grams of ethanol/grams of added sugar"}, {"measurement": "Initial Growth (OD @ 24 h) % Control", "setting": "[1]; 1% CSL+xylose", "result": 180.49, "unit": "%"}, {"measurement": "Initial Growth (OD @ 24 h) OD", "setting": "[1]; 1% CSL+xylose", "result": 3.69, "unit": "OD"}, {"measurement": "Maximum Cell Density % Control", "setting": "[1]; 1% CSL+xylose", "result": 200.16, "unit": "%"}, {"measurement": "Maximum Cell Density OD", "setting": "[1]; 1% CSL+xylose", "result": 5.04, "unit": "OD"}, {"measurement": "Maximum Cell Density Time", "setting": "[1]; 1% CSL+xylose", "result": 96, "unit": "h"}, {"measurement": "Time to completion", "setting": "[1]; 1% CSL+xylose", "result": 96, "unit": "h"}, {"measurement": "Volumetric Productivity Average", "setting": "[1]; 1% CSL+xylose", "result": "0.449 grams ethanol/(liter)(hour)"}, {"measurement": "Volumetric Productivity Average % Control", "setting": "[1]; 1% CSL+xylose", "result": 143.43, "unit": "%"}, {"measurement": "Volumetric Productivity Maximum", "setting": "[1]; 1% CSL+xylose", "result": "0.665 grams ethanol/(liter)(hour)"}, {"measurement": "Volumetric Productivity Maximum % Control", "setting": "[1]; 1% CSL+xylose", "result": 180.439, "unit": "%"}, {"measurement": "Ethanol Production Maximum", "setting": "[2]; 1% CSL+glucose", "result": 43.39, "unit": "g/L"}, {"measurement": "Ethanol Production Maximum % Control", "setting": "[2]; 1% CSL+glucose", "result": 117.30, "unit": "%"}, {"measurement": "Ethanol yield", "setting": "[2]; 1% CSL+glucose", "result": "0.447 grams of ethanol/grams of added sugar"}, {"measurement": "Initial Growth (OD @ 24 h) % Control", "setting": "[2]; 1% CSL+glucose", "result": 107.10, "unit": "%"}, {"measurement": "Initial Growth (OD @ 24 h) OD", "setting": "[2]; 1% CSL+glucose", "result": 2.86, "unit": "OD"}, {"measurement": "Maximum Cell Density % Control", "setting": "[2]; 1% CSL+glucose", "result": 140.94, "unit": "%"}, {"measurement": "Maximum Cell Density OD", "setting": "[2]; 1% CSL+glucose", "result": 3.79, "unit": "OD"}, {"measurement": "Maximum Cell Density Time", "setting": "[2]; 1% CSL+glucose", "result": 72, "unit": "h"}, {"measurement": "Time to completion", "setting": "[2]; 1% CSL+glucose", "result": 72, "unit": "h"}, {"measurement": "Volumetric Productivity Average", "setting": "[2]; 1% CSL+glucose", "result": "0.603 grams ethanol/(liter)(hour)"}, {"measurement": "Volumetric Productivity Average % Control", "setting": "[2]; 1% CSL+glucose", "result": 156.40, "unit": "%"}, {"measurement": "Volumetric Productivity Maximum", "setting": "[2]; 1% CSL+glucose", "result": "0.763 grams ethanol/(liter)(hour)"}, {"measurement": "Volumetric Productivity Maximum % Control", "setting": "[2]; 1% CSL+glucose", "result": 148.52, "unit": "%"}, {"measurement": "Ethanol Production Maximum", "setting": "[3]", "result": 44.67, "unit": "g/L"}, {"measurement": "Ethanol Production Maximum % Control", "setting": "[3]", "result": 103.69, "unit": "%"}, {"measurement": "Ethanol yield", "setting": "[3]", "result": "0.460 grams of ethanol/grams of added sugar"}, {"measurement": "Initial Growth (OD at 24 h) % Control", "setting": "[3]", "result": 106.21, "unit": "%"}, {"measurement": "Initial Growth (OD at 24 h) OD", "setting": "[3]", "result": 10.61, "unit": "OD"}, {"measurement": "Maximum Cell Density % Control", "setting": "[3]", "result": 96.07, "unit": "%"}, {"measurement": "Maximum Cell Density OD", "setting": "[3]", "result": 10.61, "unit": "OD"}, {"measurement": "Maximum Cell Density Time", "setting": "[3]", "result": 24, "unit": "h"}, {"measurement": "Time to completion", "setting": "[3]", "result": 48, "unit": "h"}, {"measurement": "Volumetric Productivity Average", "setting": "[3]", "result": "0.931 grams ethanol/(liter)(hour)"}, {"measurement": "Volumetric Productivity Average % Control", "setting": "[3]", "result": 103.69, "unit": "%"}, {"measurement": "Volumetric Productivity Maximum", "setting": "[3]", "result": "1.328 grams ethanol/(liter)(hour)"}, {"measurement": "Volumetric Productivity Maximum % Control", "setting": "[3]", "result": 115.30, "unit": "%"}]}
{"molecule": "C[C@H](N)C(=O)O", "note": "[Alanine, alanine]", "values": [{"measurement": "Ethanol Production Maximum", "setting": "[1]; 1% CSL+xylose", "result": 21.66, "unit": "g/L"}, {"measurement": "Ethanol yield", "setting": "[1]; 1% CSL+xylose", "result": "0.223 grams of ethanol/grams of added sugar"}, {"measurement": "Initial Growth (OD @ 24 h) OD", "setting": "[1]; 1% CSL+xylose", "result": 1.66, "unit": "OD"}, {"measurement": "Maximum Cell Density OD", "setting": "[1]; 1% CSL+xylose", "result": 1.73, "unit": "OD"}, {"measurement": "Maximum Cell Density Time", "setting": "[1]; 1% CSL+xylose", "result": 48, "unit": "h"}, {"measurement": "Volumetric Productivity Average", "setting": "[1]; 1% CSL+xylose", "result": "0.226 grams ethanol/(liter)(hour)"}, {"measurement": "Volumetric Productivity Maximum", "setting": "[1]; 1% CSL+xylose", "result": "0.240 grams ethanol/(liter)(hour)"}, {"measurement": "activity at 2000 µg/mL", "setting": "[1]; 24 h, read-out: Initial Growth (OD @ 24 h) % Control, 1% CSL+xylose", "result": 81.3, "unit": "%"}, {"measurement": "activity at 2000 µg/mL", "setting": "[1]; read-out: Ethanol Production Maximum % Control, 1% CSL+xylose", "result": 72, "unit": "%"}, {"measurement": "activity at 2000 µg/mL", "setting": "[1]; read-out: Maximum Cell Density % Control, 1% CSL+xylose", "result": 68.8, "unit": "%"}, {"measurement": "activity at 2000 µg/mL", "setting": "[1]; read-out: Volumetric Productivity Average % Control, 1% CSL+xylose", "result": 72, "unit": "%"}, {"measurement": "activity at 2000 µg/mL", "setting": "[1]; read-out: Volumetric Productivity Maximum % Control, 1% CSL+xylose", "result": 65.2, "unit": "%"}, {"measurement": "Ethanol Production Maximum", "setting": "[2]; 1% CSL+glucose", "result": 34.37, "unit": "g/L"}, {"measurement": "Ethanol yield", "setting": "[2]; 1% CSL+glucose", "result": "0.354 grams of ethanol/grams of added sugar"}, {"measurement": "Initial Growth (OD @ 24 h) OD", "setting": "[2]; 1% CSL+glucose", "result": 2.08, "unit": "OD"}, {"measurement": "Maximum Cell Density OD", "setting": "[2]; 1% CSL+glucose", "result": 2.68, "unit": "OD"}, {"measurement": "Volumetric Productivity Average", "setting": "[2]; 1% CSL+glucose", "result": "0.358 grams ethanol/(liter)(hour)"}, {"measurement": "Volumetric Productivity Maximum", "setting": "[2]; 1% CSL+glucose", "result": "0.468 grams ethanol/(liter)(hour)"}, {"measurement": "activity at 2000 µg/mL", "setting": "[2]; 24 h, read-out: Initial Growth (OD @ 24 h) % Control, 1% CSL+glucose", "result": 78, "unit": "%"}, {"measurement": "activity at 2000 µg/mL", "setting": "[2]; read-out: Ethanol Production Maximum % Control, 1% CSL+glucose", "result": 92.9, "unit": "%"}, {"measurement": "activity at 2000 µg/mL", "setting": "[2]; read-out: Maximum Cell Density % Control, 1% CSL+glucose", "result": 99.8, "unit": "%"}, {"measurement": "activity at 2000 µg/mL", "setting": "[2]; read-out: Volumetric Productivity Average % Control, 1% CSL+glucose", "result": 92.9, "unit": "%"}, {"measurement": "activity at 2000 µg/mL", "setting": "[2]; read-out: Volumetric Productivity Maximum % Control, 1% CSL+glucose", "result": 91.1, "unit": "%"}]}
